Consider three molecules from article PMC9372074, “Biocatalytic routes to stereo-divergent iridoids” (Nature Communications, 2022).

SMILES strings stand for the structures. Where two headings read alike, the source gives them in different places.

The target in one test is T1, NmNEPS4 (Nepeta racemosa, UniProt A0A7D3UJX6).
T1 construct: pOPINF, His-tagged; E. coli SoluBL21; Ni-NTA purified
T1 sequence (A0A7D3UJX6 1-274): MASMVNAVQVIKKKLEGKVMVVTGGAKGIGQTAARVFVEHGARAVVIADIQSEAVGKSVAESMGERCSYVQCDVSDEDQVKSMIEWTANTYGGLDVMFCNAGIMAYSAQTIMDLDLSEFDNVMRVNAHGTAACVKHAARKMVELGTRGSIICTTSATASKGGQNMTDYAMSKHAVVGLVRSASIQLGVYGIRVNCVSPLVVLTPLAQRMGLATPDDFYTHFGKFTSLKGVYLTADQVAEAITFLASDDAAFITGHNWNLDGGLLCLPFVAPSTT
Kind of test: end-point GC-MS coupled assay. Type of test: biochemical. The settings on record: nepetalactol formed in situ with 7S-ISY; NADPH, 5 mM NAD+; pH 8, 30 °C.

In the next test the target is T2, NmNEPS1 (Nepeta racemosa, UniProt A0A3Q8GL18).
T2 construct: gene NEPS1
T2 sequence (A0A3Q8GL18 whole entry): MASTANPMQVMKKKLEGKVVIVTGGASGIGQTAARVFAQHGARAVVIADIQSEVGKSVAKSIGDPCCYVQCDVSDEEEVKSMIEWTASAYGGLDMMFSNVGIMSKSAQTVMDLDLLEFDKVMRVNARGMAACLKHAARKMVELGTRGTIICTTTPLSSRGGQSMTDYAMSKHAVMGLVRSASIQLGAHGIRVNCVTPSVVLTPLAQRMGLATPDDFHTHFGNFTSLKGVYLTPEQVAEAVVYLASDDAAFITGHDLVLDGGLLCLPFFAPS
The settings on record: NADPH, 5 mM NAD+, pH 8, 30 °C.

The target in test [1] is T3, NcNEPS3A (Nepeta cataria, UniProt A0A7D3QLP1, V206Q).
T3 construct: pOPINF, His-tagged; E. coli SoluBL21; Ni-NTA purified
T3 sequence (A0A7D3QLP1 entry or part of it V206Q): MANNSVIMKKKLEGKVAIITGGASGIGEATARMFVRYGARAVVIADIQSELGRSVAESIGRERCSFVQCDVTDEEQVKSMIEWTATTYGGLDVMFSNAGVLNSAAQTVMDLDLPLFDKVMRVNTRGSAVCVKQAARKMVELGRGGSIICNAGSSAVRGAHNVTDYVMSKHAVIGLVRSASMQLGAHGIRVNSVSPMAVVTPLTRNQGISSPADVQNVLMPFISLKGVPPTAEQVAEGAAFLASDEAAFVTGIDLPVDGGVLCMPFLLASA
The experiment in a line: end-point GC-MS coupled assay. Format: biochemical. The settings on record: with 7S-ISY and 8-oxogeranial; NADPH, 5 mM NAD+; pH 8, 30 °C.

Test [2] deals with T4, NcNEPS3A (Nepeta cataria, UniProt A0A7D3QLP1).
T4 construct: pOPINF, His-tagged; E. coli SoluBL21; Ni-NTA purified
T4 sequence (A0A7D3QLP1 entry or part of it): as the sequence (A0A7D3QLP1 entry or part of it V206Q) above, with Q206V counted along it
The experiment in a line: end-point GC-MS coupled assay. Type of test: biochemical. The settings on record: nepetalactol formed in situ by the enzyme from ISY product; NADPH, 5 mM NAD+; pH 8, 30 °C.

Test [3] deals with T5, NmNEPS3 (Nepeta racemosa, UniProt A0A3Q8GLE8, Q206V).
T5 construct: gene NEPS3
T5 sequence (A0A3Q8GLE8 whole entry Q206V): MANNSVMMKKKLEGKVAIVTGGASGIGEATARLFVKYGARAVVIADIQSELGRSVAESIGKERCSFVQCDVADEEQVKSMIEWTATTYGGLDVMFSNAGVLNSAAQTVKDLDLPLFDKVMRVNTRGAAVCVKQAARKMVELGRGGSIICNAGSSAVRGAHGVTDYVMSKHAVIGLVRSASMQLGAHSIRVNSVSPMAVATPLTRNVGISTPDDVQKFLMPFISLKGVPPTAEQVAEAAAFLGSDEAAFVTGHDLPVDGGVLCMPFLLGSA
The settings on record: nepetalactol formed in situ by the enzyme from ISY product; NADPH, 5 mM NAD+; pH 8, 30 °C.

Test [4] concerns the target T6, NmNEPS3 (Nepeta racemosa, UniProt A0A3Q8GLE8).
T6 construct: gene NEPS3
The settings on record: with 7S-ISY and 8-oxogeranial; pH 8, 30 °C; cyclization of 8-oxocitronellyl enol.

T6 sequence (A0A3Q8GLE8 whole entry): as the sequence (A0A3Q8GLE8 whole entry Q206V) above, with V206Q counted along it

For the molecule `CC1=COC(O)[C@H]2[C@@H]1CC[C@@H]2C` (stereo partly drawn) [3a, 7S-cis-trans nepetalactol], the “end-point GC-MS coupled assay” value was “NmNEPS4 can only oxidize 3a (Fig. 3A)” on NmNEPS4; “NmNEPS1 is able to oxidize both 3c and 7S-cis-trans nepetalactol 3a” on NmNEPS1 (nepetalactol formed in situ with 7S-ISY).

Regarding `CC1=COC(O)[C@H]2[C@@H](C)CC[C@@H]12` (stereo partly drawn) [3b, 7S-cis-cis nepetalactol], the “end-point GC-MS coupled assay” value on NcNEPS3A [1] is on record as “NcNEPS3A-V206Q produces only 3b”; at NcNEPS3A [2], “only NcNEPS3A can oxidize 7S-cis-cis nepetalactol 3b”; on NmNEPS3 [3] it was “NmNEPS3-Q206V mutant has restored oxidation activity”; at NmNEPS3 [4], “NmNEPS3 (N. mussinii), which produces 7S-cis-cis nepetalactol 3b”.

Regarding `CC1=COC(O)[C@@H]2[C@@H]1CC[C@@H]2C` (stereo partly drawn) [3c, 7S-trans-cis nepetalactol], at NmNEPS1 (nepetalactol formed in situ with 7S-ISY and cyclase), the “end-point GC-MS coupled assay” value was “NmNEPS1 is able to oxidize both 3c and 7S-cis-trans nepetalactol 3a”.
